Test results reported in patent publication US20080319000A1, “Use of 3,1IB-Cis-Dihydrotetrabenazine for the Treatment of Symptoms of Huntingtons Disease” (CAMBRIDGE LABORATORIES (IRELAND) LIMITED, priority 2005, published 2008).

Assays:
[1] = tested on: B6CBA-Tg(HDexon1)62Gpb/1J transgenic (R6/2) mice; experiment: Rotarod test in transgenic mice model of Huntington's disease; assay type: in vivo; conditions: 5 mg/kg i.p. Day 0 to Day 3
Method: B6CBA-Tg(HDexon1)62Gpb/1J transgenic (R6/2) mice are transgenic for the 5-end of the human HD gene carrying (CAG) 115-(CAG) 150 repeat expansions. […] These symptoms appear between 6 and 8 weeks of age. Female B6CBa-Tg(HDexon1)62Gpb/1J transgenic mice (Jackson Laboratory, USA) were housed 5 per cage in an enriched environment under a light-dark cycle of 12 h-12 h (light on at 7.00 am, off at 7.00 pm) at a room temperature of 21±2° C., with 50±15% humidity. The mice had access to commercial mouse chow (mouse/rate breeding, ref. 9341 Provimi Kliba, Switzerland) and tap water. […] Two consecutive days before the first administration, animals were trained to use the rotarod: they were placed on an accelerating rotarod (Ugo Basile, Italy) for a maximum time of 450 seconds. They went through 2 training sessions starting with 4 rpm for 300 seconds, then staying at 40 rpm for 150 seconds. The two training sessions were given at 1 hour intervals. On the days of testing, each animal was subjected to one trial under the conditions described above. Each trial was terminated when the mouse fell or when it had stayed on the rotarod for 450 seconds. The mice were returned to their home cages after testing. Group 1: hemizygote Transgenic B6CBA-Tg(HDexon 1)62Gpb/1J mice treated with vehicle i.p. once a day for 4 days (from day 0 to day 3) Group 2: hemizygote Transgenic B6CBA-Tg(HDexon 1)62Gpb/1J mice treated with 5 mg/kg i.p. of test item once a day for 4 days (from day 0 to day 3) […] • Test item administration • Simplified Irwin test, 40 minutes after administration • Rotarod test, immediately after the simplified Irwin test • Test item administration • Simplified Irwin test, 40 min after administration • Rotarod test, immediately after simplified #Irwin test Simplified Irwin scores were analysed using non-parametric Mann-Whitney's U test. Locomotor activity data were analysed using Dunnett's t-test. Rotarod scores were analysed using the non-parametric Mann-Whitney's U-test. Statistical analyses were performed using the software Statview SE^+graphics software, Brain Power.

[2] = biological target: T1, monoamine oxidase isoform A (Homo sapiens, UniProt P21397); experiment: Monoamine oxidase A inhibition; assay type: biochemical
T1 sequence (P21397 1-527): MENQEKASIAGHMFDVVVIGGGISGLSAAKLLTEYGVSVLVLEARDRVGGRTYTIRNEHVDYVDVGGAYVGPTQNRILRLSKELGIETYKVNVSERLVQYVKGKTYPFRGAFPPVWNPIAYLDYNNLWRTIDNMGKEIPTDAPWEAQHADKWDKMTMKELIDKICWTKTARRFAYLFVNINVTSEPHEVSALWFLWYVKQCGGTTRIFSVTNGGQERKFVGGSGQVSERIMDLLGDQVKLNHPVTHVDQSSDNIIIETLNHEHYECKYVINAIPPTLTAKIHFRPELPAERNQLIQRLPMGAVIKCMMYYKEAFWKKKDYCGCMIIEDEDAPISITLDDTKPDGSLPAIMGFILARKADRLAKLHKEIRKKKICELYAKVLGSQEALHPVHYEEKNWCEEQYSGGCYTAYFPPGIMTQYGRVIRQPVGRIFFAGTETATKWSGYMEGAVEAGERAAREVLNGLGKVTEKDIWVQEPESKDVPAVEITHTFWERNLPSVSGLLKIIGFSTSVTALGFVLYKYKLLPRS

[3] = biological target: 5-hydroxytryptamine isoform 1d (Homo sapiens, UniProt P28221); experiment: 5-hydroxytryptamine 1d inhibition; assay type: binding
5-hydroxytryptamine isoform 1d, sequence (P28221 whole entry, canonical isoform): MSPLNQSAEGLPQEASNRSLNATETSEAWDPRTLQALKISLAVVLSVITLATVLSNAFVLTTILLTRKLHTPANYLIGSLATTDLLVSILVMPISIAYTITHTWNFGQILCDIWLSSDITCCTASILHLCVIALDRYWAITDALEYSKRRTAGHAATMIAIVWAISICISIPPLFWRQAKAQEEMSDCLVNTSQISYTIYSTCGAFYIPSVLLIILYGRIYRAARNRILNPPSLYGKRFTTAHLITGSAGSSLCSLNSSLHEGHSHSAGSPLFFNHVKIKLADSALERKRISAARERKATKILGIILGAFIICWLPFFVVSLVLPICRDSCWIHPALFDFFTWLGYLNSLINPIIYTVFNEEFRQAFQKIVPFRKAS

Question: `COc1cc2c(cc1OC)[C@H]1C[C@H](O)[C@@H](CC(C)C)CN1CC2` (single isomer, unassigned) [Isomer B] was tested. Which “Measured latencies to fall from Rotarod” value ([1]; Day 0, prior to 1st administration) did it give?
Answer: 68.4 ± 17.7 s

Question: And the “Measured latencies to fall from Rotarod” value ([1]; Day 1)?
Answer: 91.4 ± 18.1 s

Question: And the “Measured latencies to fall from Rotarod” value ([1]; Day 3)?
Answer: 59.4 ± 11.2 s

Question: And the “Measured latencies to fall from Rotarod” value ([1]; Day 9)?
Answer: 29.0 ± 12.1 s

Question: What about the “Measured latencies to fall from Rotarod” value ([1]; Day 17) of the same compound?
Answer: 30.0 ± 11.0 s

Question: What about the “Measured latencies to fall from Rotarod” value ([1]; Day 21) of the same compound?
Answer: 22.1 ± 7.3 s

Question: What about the “Measured latencies to fall from Rotarod” value ([1]; Day 24) of the same compound?
Answer: 14.8 ± 4.3 s

Question: What about the “Measured latencies to fall from Rotarod” value ([1]; Day 27) of the same compound?
Answer: 15.8 ± 5.2 s

Question: And the “Measured latencies to fall from Rotarod” value ([1]; Day 31)?
Answer: 7.8 ± 2.4 s

Question: And the “inhibitory activity against monoamine oxidase isoform A” value [2]?
Answer: no inhibitory activity

Question: And the “inhibitory activity against 5-hydroxytryptamine isoform 1d” value [3]?
Answer: no inhibitory activity
